Assay type in all cases: cell-based
In series [1] the test system is PCD12 cells. The series can be described thus: Bioassay for neurite elongation (potentiation of NGF activity). The note with it: for number of cells having neurites (morphological change): 100 μg/ml together with NGF (10 ng/ml) (FIG. 3); for effect of potentiating neurite elongation compared with the negative control group added with NGF 10 ng/ml: 100 μg/ml vitamin K, 48 hours incubation, ratio of cells having neurites (FIG. 1); for effect of potentiating neurite elongation in PCD12 cells: 100 μg/ml, in the presence of low dose of NGF (0-50 ng/ml) (FIG. 1). How it is done:
Cells (PCD12 cells) were harvested and plated on a complete medium of collagen-coating tissue incubation dish in the density of 1.3×10^4 cells/cm^2. […] After 48 hours of incubation, the ratio of cells having neurites was examined using a phase-contrast microscope under ×200 magnification. […] Each measurement in the data is the mean value calculated from examining random 6 […] duplicate experiments, whereby at least 100 cells/point was counted for calculation.

Series [2] relates to PCD12 cells. How it is done:
Cells (PCD12 cells) were harvested and plated on a complete medium of collagen-coating tissue incubation dish in the density of 1.3×10^4 cells/cm^2. After 24 hours, NGF (0-50 ng/ml) and 100 μg/ml (the maximum concentration wherein toxicity against PCD12 cells is not observed) of vitamin K1 or vitamin K2 (n=4) were added to the cells.

Series [3] concerns PCD12 cells. The series can be described thus: Effect of each inhibitor on neurite elongation potentiated by vitamin K's. The note with it: 10 μM PD98059 pretreatment, 48 hours incubation (FIG. 4). How it is done: In order to study the action mechanism of vitamin K's, influence of MAPK kinase inhibitor (PD98059), protein kinase A (PKA) inhibitor, and protein kinase C (PKC) inhibitor (chelerythrine chloride) on the effects for potentiating neurite elongation of vitamin K's in PCD12 cells were studied. Pre-incubation of cells was carried out for 1 hour in the presence or in the absence of the inhibitor before treatment of NGF or vitamin K compound. After 48 hours of incubation, the ratio of cells having neurites was examined.

Like-named read-outs stand apart in the source and are kept apart here.

For the compound menaquinone [vitamin K2], in the series on PCD12 cells [1], the “number of cells having neurites (morphological change)” value is on record as “remarkably increased”, the “effect of potentiating neurite elongation compared with the negative control group added with NGF 10 ng/ml” value was “about 2.4 times” and the “effect of potentiating neurite elongation in PCD12 cells” value was “confirmed”. Further, in the series with PCD12 cells [2], the “maximum concentration wherein toxicity against PCD12 cells is not observed” value was determined as 100 µg/mL.

For the compound `COc1cccc(-c2cc(=O)c3ccccc3o2)c1N` [PD98059], the “inhibition of the potentiation of vitamin K's” value in the series with PCD12 cells [3] is reported as “almost completely inhibited”.

Consider `CC1=C(C/C=C(\C)CCC[C@H](C)CCC[C@H](C)CCCC(C)C)C(=O)c2ccccc2C1=O` [vitamin K1, phylloquinone], for which, in the series with PCD12 cells [1], the “number of cells having neurites (morphological change)” value was “remarkably increased”, the “effect of potentiating neurite elongation compared with the negative control group added with NGF 10 ng/ml” value is “about 1.8 times” and the “effect of potentiating neurite elongation in PCD12 cells” value was “confirmed”. Besides, the “maximum concentration wherein toxicity against PCD12 cells is not observed” value with PCD12 cells [2] (rat) is 100 µg/mL.

Source of the values: US20060058398A1, “Medicinal compositions containing vitamin k's as nerve growth factor potentiator and utilization thereof” (Hisamitsu Pharmaceutical Co., Inc., priority 2002, published 2006).
